According to patent US10308682B2, “Inhibition of tumor growth with aggregates of small molecules” (BRANDEIS UNIVERSITY, priority 2013, dated 2019):

Columns and labels:
HeLa cells = experiment: Cell viability assay (MTT), HeLa cells; assay type: cell-based
Method: Cells in exponential growth phase were seeded in a 96 well plate at a concentration of 50,000 cell/well. The cells were allowed to attach to the wells for 24 h at 37° C., 5% CO2, then the culture medium was removed and 100 μL new culture medium containing 1 at gradient concentrations was placed into each well. After culturing at 37° C., 5% CO2 for desired time, each well was added by 10 μL of 5 mg/mL MTT 43-(4,5-Dimethylthiazol-2-yl)-2,5-diphenyltetrazolium bromide), and the plated cells were incubate at dark for 4 h. 100 μL 10% SDS with 0.01 M HCl was added to each well to stop the reduction reaction and to dissolve the purple. After incubation of the cells at 37° C. for overnight, the viability is measured. Data represent the mean±standard deviation of three independent experiments.
The estimation of the threshold concentration of aggregation (320-340 μM) for 1 allows us to examine the cytotoxicity of 1 in monomer and molecular aggregate forms. We first tested the cytotoxicity of 1 towards HeLa cells, the most widely studied cancer cell line, below and above the threshold concentration.

[1] = Self-assembly: gelation and aggregation ability; assay type: physicochemical
From the text: FIG. 22 depicts the characteristics and cytotoxicity of a structural analog of 1.
Another often overlooked feature of amyloid oligomers is that their cytotoxicity is independent of chirality of the amino acids.

[2] = cited from earlier work

| Compound | cytotoxicity (MTT, HeLa cells) compared with 1 (HeLa cells) | gelation ability compared with 1 [1] | IC50 (cytotoxicity of aberrant protein aggregates) [2] [µg/mL] |
| --- | --- | --- | --- |
| O=C(Cc1ccc2ccccc2c1)N[C@@H](Cc1ccc(O)cc1)C(=O)N[C@@H](Cc1ccc(O)cc1)C(=O)O [Nap-YY] | lower cytotoxicity than 1 | poorer gelation ability | – |
| transthyretin | – | – | 200 |
